Source: patent US4775691A, “4H-benzo[4,5]cyclohepta[1,2-b]thiophene derivatives” (Sandoz Ltd., priority 1985, dated 1988)
Where two headings read alike, the source gives them in different places.

Columns and labels:
[1] = system: LPS (E. coli) induced fever in the rat; assay: LPS (E. coli) induced fever test in the rat (Test B), anti-pyretic activity; assay type: in vivo, rat (Sprague-Dawley); details: for ED50: Escherichia coli, 2 h, read-out: ED50, Test B
Procedure: For this test male rats (Sprague-Dawley) of 130-180 g are fasted overnight. Body temperature is measured the following morning using a rectal probe connected to a telethermometer. […] Body temperature is measured 2 hours later and this value taken as the initial temperature. 6 hours after injection, the test animals receive an oral dosage of the test substance suspended in 0.5% tragacanth or tragacanth alone (control). Body temperature is again measured after a further 2 hours.

[2] = system: arthritis pain in the rat; assay: Arthritis pain test in the rat (Test C), analgesic activity; assay type: in vivo, rat (OFA); details: for ED50: read-out: ED50, Test C
Procedure: For this test male rats (OFA) of 110-120 g are treated with 0.1 ml of a Myobacterium smegmatis suspension in paraffin oil (0.6 mg Mycobact./0.1 ml oil) injected i.c. into the tail root. Market arthritis in the hind-paws develops ca. 12 days after treatment. 30 mins. before administration of test-substance, control measurement is performed by flexing the foot joint of the right or left hind-paw using a Statham transducer until volcalisation occurs. […] Test substance is administered orally and the flexion procedure repeated 1, 3 and 5 hours subsequently. The pressure at which vocalisation occurs is noted, the value recorded for each rat at each interval being the average value of three successive measurements. Animals in which the vocalisation threshold is doubled with respect to the control measurement are considered to be protected. The ED50 estimated for each post-treatment time according to the Probit method is taken as the dosage at which 50% of animals are protected. Active agents of the invention are active in this test at dosages of from 3.2 to 100 mg/kg.

[3] = system: established adjuvant arthritis in the rat; assay: Adjuvant arthritis test in the rat (Test A), anti-inflammatory activity; assay type: in vivo; details: for ED50: read-out: ED50, Test A
Text: For this test, adjuvant arthritis is induced according to the method of Pearson and Wood, "Arthr.

[4] = fraction of commonly employed acetylsalicylic acid dosage

SMILES | ED50 ([1]; oral, rat, dosage at which increase in rectal temperature is 50% of control group) [mg/kg] | indicated daily dosage relative to acetylsalicylic acid, anti-pyretic therapy [1, 4] | indicated daily dosage relative to acetylsalicylic acid, analgesic therapy [2, 4] | ED50 ([2]; oral, rat, dosage at which 50% of animals are protected (vocalisation threshold doubled), post-treatment time not stated) [mg/kg] | ED50 ([3]; established adjuvant arthritis, rat) [mg/kg] | indicated daily dosage relative to acetylsalicylic acid, anti-inflammatory therapy [3, 4] | ED50 ([1]; po) [mg/kg] | ED50 ([2]; Rattus norvegicus, po) [mg/kg] | ED50 ([3]; Rattus norvegicus) [mg/kg]
COC1=Cc2ccccc2/C(=C\C(=O)O)c2cc(Cl)sc21 [Compound A, [2-chloro-10-methoxy-4H-benzo[4,5]-cyclohepta[1,2-b]thiophen-4-ylidene]acetic acid (E)-isomer] | 14 ± 5 | 1/10 | 1/5 | 18 | 10 ± 2 | 1/24 | – | – | –
CC(=O)Oc1ccccc1C(=O)O [Compound B, acetyl-salicylic acid, reference compound] | – | – | – | – | – | – | 161 | 90 | 240
